Measurements: paper PMC10396955, “2-Oxabicyclo[2.1.1]hexanes as saturated bioisosteres of the ortho-substituted phenyl ring” (Nature Chemistry, 2023)
≈ marks a conversion by molar mass, not a printed value. Where two headings read alike, the source gives them in different places.

Tests used:
physchem = format: physicochemical; details: for D (partition ratio), incubation 1 / D (partition ratio), incubation 2 / D (partition ratio), incubation 3: Table S2, n-octanol/PBS pH 7.4
Method: Determination of Distribution Coefficient (LogD, pH 7.4) […]
n-octanol – phosphate buffered saline (PBS), pH 7.4. Distribution coefficient (or LogD) is a […]
Phosphate buffered saline, tablet (Sigma-Aldrich, USA; Cat # P4417)
Acetic acid (Enamine, Ukraine.)
DMSO stock solutions of the test compounds 10mM
Gradient HPLC system (Shimadzu, Japan)
MTR22 Multi Mix Rotator (UNICO, USA)
Laboratory Centrifuge, Sigma 4-15C, Qiagen (SIGMA GmbH, Germany) […]
allowed to mix in a rotator for 1 h at 30 rpm. Phase separation was assured by centrifugation for […]
dilution. The samples (both phases) were analyzed using a HPLC system coupled with a tandem mass spectrometer. Mebendazole was used as a reference compound. […]
where: SO – peak area of the analyte in octanol phase
S P – peak area of the analyte in PBS buffer do – dilution coefficient for octanol phase dp – dilution coefficient for aqueous phase

[1] = Metabolic stability in human liver microsomes; format: in vitro ADME; details: both sexes
Method: (§1) The data acquisition and system control was performed using Analyst 1.6.3 software from AB Sciex. Methods Microsomal incubations were carried out in 96-well plates in 5 aliquots of 30 μL each (one for each time point). […] In the control reactions the NADPH-cofactor system was substituted with phosphate buffer. […] Each reaction was performed in duplicates. Five time points over 40 minutes were analyzed. The reactions were stopped by adding 4 volumes of methanol containing internal standard to incubation aliquots, followed by protein sedimentation by centrifuging at 5500 rpm for 4 minutes. […]. Supernatants were analyzed using the HPLC system coupled with tandem mass spectrometer. […] In some cases, the last time point is excluded from the calculations to ensure acceptable logarithmic linearity of decay.

human liver microsomes = test: Metabolic stability in human liver microsomes; format: in vitro ADME
Method: as §1

[2] = Kinetic solubility in phosphate-buffered saline, pH 7.4; format: physicochemical; details: 25 °C, pH 7.4, aqueous buffer, kinetic from dmso stock
Method: Analysis of Aqueous Solubility […]
compound (Ondansetron) were assessed for kinetic solubility in phosphate-buffered saline, pH […]
Phosphate buffered saline, pH 7.4 (Sigma-Aldrich, USA; Cat #P3813) […]
MultiScreen HTS 96 Well Filter Plates (Millipore, Ireland; Cat # MSGVS2210) […]
Matrix Multichannel Electronic Pipette 2-125 µL, 5-250 µL, 15-1250 µL (Thermo Scientific, […]
Vacuum pump (Millipore, USA; Model # XX5500000)
The measurements were performed using SpectraMax Plus reader in UV-Vis mode. Acquisition and analysis of the data were performed using SoftMax Pro v.5.4 (Molecular Devices) and Excel […]
Kinetic solubility assay was performed according to the Enamine’s aqueous solubility SOP.
Briefly, using a 20 mM stock solution of the compound in 100% DMSO dilutions were prepared to a theoretical concentration of 400 μM in duplicates in phosphate-buffered saline pH 7.4 […]
for two hours and then filtered through HTS filter plates using a vacuum manifold. The filtrates of test compounds were diluted 2-fold with acetonitrile with 2% DMSO before measuring.
In parallel, compound dilutions in acetonitrile/PBS (1:1) were prepared to theoretical […]
DMSO to generate calibration curves. Ondansetron was used as reference compound to control proper assay performance. 200 μl of each sample was transferred to 96-well plate and measured in 200-550 nm range with 5 nm step.
The concentrations of compounds in PBS filtrate are calculated using a dedicated Microsoft Excel calculation script. Proper absorbance wavelengths for calculations are selected for each compound manually based on absorbance maximums (absolute absorbance unit values for the minimum and maximum concentration points within 0 – 3 OD range). Each of the final datasets is additionally visually evaluated by the operator and goodness of fit (R2) is calculated for each calibration curve. The effective range of this assay is approximately 2-400 μM and the […]

Fusarium oxysporum = test: Antifungal susceptibility testing (MIC, CLSI M38-A2 microdilution); format: cell-based
Method: (§2) page 252: Antifungal susceptibility testing (determination of MIC values) The antifungal susceptibility tests were performed according to the Clinical and Laboratory Standards Institute (CLSI) […]-A2 protocol for mycelial fungi (1). Stock solutions were prepared by dissolving an appropriate amount of testing compounds in DMSO. Solutions of test compounds were added to the wells of a 96-well polystyrene microtiter plate (Colstar, USA) in the concentration range from 0.5 to 0.001 mg/mL. Mycelium growth was monitored photometrically at 490 nm by measuring the optical density of each well. Measurements were carried out two times: immediately after adding all components (RPMI 1640 broth, conidial suspension, test compound solutions) and after incubation plate at 26 °C for 48 h (2). MICs were the lowest testing compound concentrations that produced partial growth inhibition (50% of optical density relative to the control without testing compounds). The tests were performed in triplicate Results : Table S6. The MIC values of Fluxapyroxad , Boscalid , and their saturated analogues against Fusarium oxysporum , and Fusarium verticillioides Antifungal compaunds MIC, mg/mL Fusarium oxysporum Fusarium verticillioides Fluxapyroxad -* 0.250 Analogue (±)- 28 0.125 0.125 […] of 0.063 mg/mL. […]

Fusarium verticillioides = test: as above; format: cell-based; details: Fusarium verticillioides; for MIC: read-out: MIC
Method: as §2

[3] = pH 7.4, LogD, pH 7.4, incubation 1
[4] = pH 7.4, LogD, pH 7.4, incubation 2
[5] = pH 7.4, LogD, pH 7.4, incubation 3
[6] = human, microsomes, pH 7.4, % Remaining without cofactor, Mean of 2
[7] = human, microsomes, pH 7.4, % Remaining, Mean of 2
[8] = human, microsomes, pH 7.4, Clint
[9] = human, microsomes, pH 7.4, t1/2
[10] = PBS solubility, pH 7.4, Incubation 1
[11] = PBS solubility, pH 7.4, Incubation 2
[12] = Table S6, lowest concentration giving 50% of optical density relative to control, 26 °C, 48 h
[13] = human, liver microsomes, pH 7.4, human liver microsomes, 2 μM, 37 °C, with NADPH, 7 min
[14] = human, liver microsomes, pH 7.4, human liver microsomes, 2 μM, 37 °C, with NADPH, 15 min
[15] = human, liver microsomes, pH 7.4, human liver microsomes, 2 μM, 37 °C, with NADPH, 25 min, read-out: % Remaining, Mean of 2
[16] = human, liver microsomes, pH 7.4, human liver microsomes, 2 μM, 37 °C, with NADPH, 40 min, read-out: % Remaining, Mean of 2
[17] = human, liver microsomes, pH 7.4, human liver microsomes, 0.42 mg protein per ml, Table S3, * approximate due to high stability, read-out: Clint
[18] = human, liver microsomes, pH 7.4, human liver microsomes, * approximate due to high stability, read-out: t1/2
[19] = pH 7.4, human liver microsomes, no NADPH cofactor, 40 min, ** instability partially or completely not determined by CYP450 activity, read-out: % Remaining without cofactor, Mean of 2
[20] = phosphate-buffered saline, Table S1, incubation 1, read-out: PBS solubility, pH 7.4, Incubation 1
[21] = phosphate-buffered saline, Table S1, incubation 2, read-out: PBS solubility, pH 7.4, Incubation 2
[22] = phosphate-buffered saline, experimental kinetic solubility in phosphate-buffered saline at pH 7.4, Fig. 3, read-out: Solubility
[23] = 48 h, Table S6, lowest concentration giving 50% of optical density relative to control, 26 °C, 48 h
[24] = pH 7.4, human liver microsomes, elimination constant, * approximate due to high stability, read-out: kel (converted)

D (partition ratio), incubation 1 (physchem)	D (partition ratio), incubation 2 (physchem)	D (partition ratio), incubation 3 (physchem)	logD at 1 h (physchem; pH 7.4, LogD, pH 7.4 (mean))	logD at 1 h (physchem; [3])	logD at 1 h (physchem; [4])	logD at 1 h (physchem; [5])	logD at 1 h (physchem; pH 7.4, logD (7.4))	MIC (Fusarium oxysporum; Fig. 4e) [µg/mL]	MIC (Fusarium oxysporum; [12]) [µg/mL]	remaining at […], 2 µM [1, 13] [%]	remaining at […], 2 µM [1, 14] [%]	remaining at 25 min, 2 µM [1, 15] [%]	remaining at 40 min, 2 µM [1, 16] [%]	microsomal CLint at 2 µM [1, 17] [µL/min/mg]	half-life at 2 µM [1, 18] [h]	remaining at 40 min, 2 µM [1, 19] [%]	CIint, intrinsic clearance (human liver microsomes; human liver microsomes) [µL/min/mg]	solubility at 2 h [2, 20] [µM]	solubility at 2 h [2, 21] [µM]	SMILES	other results
3.05E+03	3.16E+03	3.13E+03	3.5	3.48	3.5	3.5	2.7 ± 0.2	250 (≈ 716 µM)	250 (≈ 716 µM)	107	110	107	108	~3	~8.09	85	3	148 (≈ 51.7 µg/mL)	157 (≈ 54.8 µg/mL)	O=C(N[C@@H]1[C@H]2C[C@]1(c1ccc(Cl)cc1)CO2)c1cccnc1Cl (relative stereo) [Compound 31]	microsomal CLint at 2 µM ([1]; human, liver microsomes, pH 7.4, human liver microsomes, Fig. 3, read-out: CIint, intrinsic clearance): 3 µL/min/mg; solubility at 2 h [2, 22]: 152 µM (≈ 53.1 µg/mL); inhibition at 250 µg/mL (Fusarium verticillioides; read-out: Maximal inhibition of growth): 36.3 ± 1.9%
3.37E+03	2.99E+03	3.24E+03	3.51	3.53	3.48	3.51	3.5	–	–	–	–	–	–	–	–	–	–	–	–	Cn1cc(C(=O)Nc2ccccc2-c2cc(F)c(F)c(F)c2)c(C(F)F)n1 [Fluxapyroxad, reference compound]	remaining at 40 min, 2 µM [1, 6]: 79%; remaining at 25 min, 2 µM [1, 7]: 73%; remaining at 40 min, 2 µM [1, 7]: 63%; microsomal CLint at 2 µM [1, 8]: 28 µL/min/mg; half-life at 2 µM [1, 9]: 0.983 h; k el at 2 µM ([1]; human, pH 7.4): 0.0002 s⁻¹; CIint, intrinsic clearance (human liver microsomes; human, microsomes): 28 µL/min/mg; solubility at 2 h [2, 10]: 24 µM (≈ 9.15 µg/mL); solubility at 2 h [2, 11]: 27 µM (≈ 10.3 µg/mL); solubility at 2 h ([2]; Solubility): 25 µM (≈ 9.53 µg/mL); inhibition at 31 µg/mL (Fusarium oxysporum; at a concentration of 0.031 mg/mL, MIC not reached, read-out: Maximal inhibition of growth): 38 ± 1.9%; MIC (Fusarium verticillioides; [23]): 250 µg/mL (≈ 656 µM); MIC (Fusarium verticillioides; Fig. 4e): 250 µg/mL (≈ 656 µM)
5.70E+02	6.13E+02	5.77E+02	2.77	2.76	2.79	2.76	2.8	–	–	106	93	83	72	23	1.22	89	23	151 (≈ 58.5 µg/mL)	158 (≈ 61.2 µg/mL)	Cn1cc(C(=O)N[C@@H]2[C@H]3C[C@]2(c2cc(F)c(F)c(F)c2)CO3)c(C(F)F)n1 (relative stereo) [Compound 29]	k el at 2 µM [1, 24]: 0.00015 s⁻¹; solubility at 2 h [2, 22]: 155 µM (≈ 60 µg/mL); inhibition at 125 µg/mL (Fusarium oxysporum; at a concentration of 0.125 mg/mL, MIC not reached, read-out: Maximal inhibition of growth): 35.7 ± 2.4%; MIC (Fusarium verticillioides; [23]): 250 µg/mL (≈ 645 µM); MIC (Fusarium verticillioides; Fig. 4e): 250 µg/mL (≈ 645 µM)
3.24E+04	2.00E+04	1.32E+04	4.32	4.51	–	4.12	4.3	125 (≈ 324 µM)	125 (≈ 324 µM)	78	72	57	55	35	0.79	99	35	35 (≈ 13.5 µg/mL)	33 (≈ 12.7 µg/mL)	Cn1cc(C(=O)N[C@@H]2[C@@H]3CC[C@@]2(c2cc(F)c(F)c(F)c2)C3)c(C(F)F)n1 (relative stereo) [Compound 28]	k el at 2 µM [1, 24]: 0.00025 s⁻¹; solubility at 2 h [2, 22]: 34 µM (≈ 13.1 µg/mL); MIC (Fusarium verticillioides; [23]): 125 µg/mL (≈ 324 µM); MIC (Fusarium verticillioides; Fig. 4e): 125 µg/mL (≈ 324 µM)

SMILES	D (partition ratio), incubation 1 (physchem)	D (partition ratio), incubation 2 (physchem)	D (partition ratio), incubation 3 (physchem)	logD at 1 h (physchem; pH 7.4, LogD, pH 7.4 (mean))	logD at 1 h (physchem; [3])	logD at 1 h (physchem; [4])	logD at 1 h (physchem; [5])	logD at 1 h (physchem; pH 7.4, logD (7.4))	MIC (Fusarium oxysporum; Fig. 4e) [µg/mL]	MIC (Fusarium oxysporum; [12]) [µg/mL]	remaining at […], 2 µM [1, 13] [%]	remaining at […], 2 µM [1, 14] [%]	remaining at 25 min, 2 µM [1, 15] [%]	remaining at 40 min, 2 µM [1, 16] [%]	microsomal CLint at 2 µM [1, 17] [µL/min/mg]	half-life at 2 µM [1, 18] [h]	remaining at 40 min, 2 µM [1, 19] [%]	CIint, intrinsic clearance (human liver microsomes; human liver microsomes) [µL/min/mg]	solubility at 2 h [2, 20] [µM]	solubility at 2 h [2, 21] [µM]	other results
O=C(Nc1ccccc1-c1ccc(Cl)cc1)c1cccnc1Cl [Boscalid, reference compound]	3.62E+03	2.86E+03	4.07E+03	3.55	3.56	3.46	3.61	3.6	250 (≈ 728 µM)	250 (≈ 728 µM)	–	–	–	–	–	–	–	–	–	–	remaining at 40 min, 2 µM [1, 6]: 59%; remaining at 25 min, 2 µM [1, 7]: 75%; remaining at 40 min, 2 µM [1, 7]: 66%; microsomal CLint at 2 µM [1, 8]: 26 µL/min/mg; half-life at 2 µM [1, 9]: 1.06 h; k el at 2 µM ([1]; human, pH 7.4): 0.000183 s⁻¹; CIint, intrinsic clearance (human liver microsomes; human, microsomes): 26 µL/min/mg; solubility at 2 h [2, 10]: 9 µM (≈ 3.09 µg/mL); solubility at 2 h [2, 11]: 13 µM (≈ 4.46 µg/mL); solubility at 2 h ([2]; Solubility): 11 µM (≈ 3.78 µg/mL); inhibition at 63 µg/mL (Fusarium verticillioides; at a concentration of 0.063 mg/mL, MIC not reached, read-out: Maximal inhibition of growth): 39.2 ± 2.7%
